Test results from patent publication US9808425B2, “Targeted liposomes in cancer therapy” (WESTERN UNIVERSITY OF HEALTH SCIENCES, priority 2011, dated 2017).

Test system: A549 cells
Assay: DNR-mediated cytotoxicity, MTS assay
Assay type: cell-based
Conditions: Homo sapiens, A549, 72 h, read-out: IC50 AVG
Protocol: Because DNR is a cytotoxic compound, the effectiveness of cystine liposomal DNR as an intracellular delivery system was assessed by relying on cytotoxicity measurements as a measure of DNR uptake. […] Cytotoxicity was measured in A549 cells following the addition of the aforementioned DNR formulations to the cells followed by an incubation period, and determination of cytotoxicity by using a MTS assay. Briefly, an MTS assay is a non radioactive cell proliferative assay of a tetrazolium compound (3-(4,5-dimethylthiazol-2-yl)-5-(3-carboxymethoxyphenyl)-2-(4-sulfophenyl)-2H-tetrazolium, inner salt; MTS) and the electron coupling reagent, phenazine methosulfate (PMS). MTS is bio-reduced by cells to a formazan compound by a reductase enzyme present in metabolically active cells. The absorbance of the formazan compound can be measured at 490 nm wavelength and is directly proportional to the number of living cells. The toxicity was determined using dose response curve to determine IC50. IC50 is the concentration of the test compound required to reduce light absorbance capacity of the cells by 50%.
MTS reagent was prepared by mixing 20% MTS and 1% PMS solution in RPMI 1640 medium of volume 8 ml. […] The amount of formazan was measured at 490 nm wavelength. […]

SMILES: COc1cccc2c1C(=O)c1c(O)c3c(c(O)c1C2=O)C[C@@](O)(C(C)=O)C[C@@H]3O[C@H]1C[C@H](N)[C@H](O)[C@H](C)O1 [Free DNR, daunorubicin]
- IC50: 15.2 µM
